Data published in paper PMC6630832, “3-Vinylazetidin-2-Ones: Synthesis, Antiproliferative and Tubulin Destabilizing Activity in MCF-7 and MDA-MB-231 Breast Cancer Cells” (Pharmaceuticals, 2019).

Experiments:
[1] = system: human MCF-7 breast cancer cells; assay: Cell viability (Alamar Blue) antiproliferative assay in MCF-7 cells; type: cell-based; details: Homo sapiens, MCF7, 72 h, human MCF-7 breast cancer cells; 72 h; mean ± SEM; read-out: Antiproliferative Activity IC50
Protocol: (§1) The human breast carcinoma cell line MCF-7, was purchased from the European Collection of Animal Cell Cultures (ECACC) and was cultured in Eagle’s minimum essential medium with 10% fetal bovine serum, 2 mM L-glutamine and 100 μg/mL penicillin/streptomycin. The medium was supplemented with 1% non-essential amino acids. The human breast carcinoma cell line MDA-MB-231 was purchased from the European Collection of Animal Cell Cultures (ECACC). MDA-MB-231 cells were maintained in Dulbecco’s modified Eagle’s medium (DMEM) supplemeted with 10% (v/v) fetal bovine serum, 2 mM L-glutamine and 100 μg/mL penicillin/streptomycin (complete medium). All media contained 100 U/mL penicillin and 100 μg/mL streptomycin. Triple negative breast cancer Hs578T cells and its invasive variant Hs578Ts(i)8 were obtained as a kind gift from Dr. Susan McDonnell, School of Chemical and Bioprocess Engineering, University College Dublin and were cultured in Dulbecco’s Modified Eagle’s Media (DMEM) with GlutaMAX^TM-I, with the same supplement as for MDA-MB-231 cells in the absence of non-essential amino acids. HEK-293T normal epithelial embryonic kidney cells were cultured in Dulbecco’s Modified Eagle’s Medium (DMEM) with GlutaMAX^TM-I in the absence of non-essential amino acids. K562 and HL-60 cells were originally obtained from the European Collection of Cell Cultures (Salisbury, UK).The K562 cells were derived from a patient in the blast crisis stage of CML HL-60 cells were derive from a patient with acute myeloid leukaemia. Cells were cultured in RPMI-1640 Glutamax medium supplemented with 10% FCS media, and 100 μg/mL penicillin/streptomycin. Cells were maintained at 37 °C in 5% CO2 in a humidified incubator. All cells were sub-cultured three times/week (adherent cells by trypsinisation).
(§2) Cells were seeded at a density of 5 × 10^3 cells/well (MCF-7), in triplicate in 96-well plates. After 24 h, cells were then treated with either medium alone, vehicle [1% ethanol (v/v)] or with serial dilutions of CA-4 or β-lactam analogue. Cell viability for MCF-7 and MDA-MB-231 was analysed using the Alamar Blue assay (Invitrogen Corp, Thermo Fisher Scientific, 168 Third Avenue, Waltham, MA, USA) according to the manufacturer’s instructions. After 72 h, Alamar Blue [10% (v/v)] was added to each well and plates were incubated for 3–5 h at 37 °C in the dark. Fluorescence was read using a 96-well fluorimeter with excitation at 530 nm and emission at 590 nm. Results were expressed as percentage viability relative to vehicle control (100%). Dose response curves were plotted and IC50 values (concentration of drug resulting in 50% reduction in cell survival) were obtained using the commercial software package Prism (GraphPad Software, Inc., 2365 Northside, Suite 560, San Diego, CA, USA). Experiments were performed in triplicate on at least three separate occasions.

[2] = system: human MDA-MB-231 breast cancer cells; assay: Cell viability (Alamar Blue) antiproliferative assay in MDA-MB-231 cells; type: cell-based; details: mean ± SEM
Protocol: as §1, §2

[3] = system: MCF-7 cells; assay: Lactate dehydrogenase (LDH) assay for cytotoxicity; type: cell-based; details: Homo sapiens, MCF7, 72 h, read-out: cell death (LDH assay)
Protocol: Cytotoxicity was determined using the CytoTox 96 non-radioactive cytotoxicity assay (Promega Corporation; 2800 Woods Hollow Road, Madison, WI, USA) following the manufacturer’s protocol. Briefly, MCF-7 cells were seeded in 96-well plates, incubated for 24 hr and then treated with test compounds (7d, 7h, 7i, 7q, 7r, 7u, 7t, 10d, 10f, 12) as described in the cell viability assay above. After 72 h, 20 μL of ‘lysis solution (10X)’ was added to control wells and the plate was incubated for a further 1 hr to ensure 100% death. 50 μL of supernatant was carefully removed from each well and transferred to a new 96-well plate. 50 μL of reconstituted ‘substrate mix’ was added and the plate was placed in the dark at room temperature for 30 min. After this period, 50 μL of ‘stop solution’ was added to each well and the absorbance was read at a wavelength of 490 nm using a Dynatech MR5000 plate reader. The percentage cell death at 10 μM was calculated.

[4] = target: T1, purified bovine tubulin (Bos taurus, UniProt P81947+Q6B856); assay: Tubulin polymerization assay; type: biochemical; details: 10 μM; for vmax of tubulin polymerization: absorbance at 340 nm, 37 °C
T1 construct: Purified (>99%) bovine brain tubulin (3 mg/mL); purchased Cytoskeleton Inc. BK006; host or cells: bovine brain (tissue-purified)
Protocol: The assembly of purified bovine tubulin was monitored using a kit, BK006, purchased from Cytoskeleton Inc., 1830 S Acoma St, Denver, CO, 80223, USA.. The assay was carried out in accordance with the manufacturer’s instructions in the tubulin polymerisation assay kit manual using the standard assay conditions. The values reported represent the average values from two independent assays. Purified (>99%) bovine brain tubulin (3 mg/mL) in a buffer consisting of 80 mM PIPES (pH 6.9), 0.5 mM EGTA, 2 mM MgCl2, 1 mM GTP and 10% glycerol was incubated at 37 °C in the presence of either vehicle (2% (v/v) ddH2O) or compounds 7h, 7i, 7s, 7t (initially 10 µM in EtOH); CA-4 and Paclitaxel were used as controls. Light is scattered proportionally to the concentration of polymerised microtubules in the assay. Therefore, tubulin assembly was monitored turbidimetrically at 340 nm at 37 °C in a Spectramax 340 PC spectrophotometer (Molecular Devices, 3860 N 1st St, San Jose, CA, USA). The absorbance was measured at 30 s intervals for 60 min.

[5] = system: NCI 60 cell line panel; assay: NCI60 cell line screen (SRB assay), whole panel or sub-panels; type: cell-based; details: mean over the total NCI 60 cell line panel
Excerpt: The results are summarized in Tables S3–S5, Supplementary Information.
Table S5: NCI 60 cell line mean screening results for selected compounds NCI Ref. Compound GI50 TGI LC50 […]
a GI50 and LC50 are the mean concentrations required to inhibit the growth and kill 50 % of the cells over the total NCI 60 cell line panel in the assay respectively. […]
over the total NCI 60 cell line panel.

[6] = system: microtubule network of MCF-7 cells; assay: Immunofluorescence microscopy; type: cell-based, human; details: 1 μM, 16 h
Protocol: Confocal microscopy was used to study the effects of drug treatment on MCF-7 cytoskeleton. For immunofluorescence, MCF-7 cells were seeded at 1 × 10^5 cells/mL on eight chamber glass slides (BD Biosciences, 2350 Qume Dr, San Jose, CA, USA). Cells were either untreated or treated with vehicle [1% ethanol (v/v)], paclitaxel (1 μM), combretastatin A-4 (100 nM) or compound 7s (100 nM) for 16 h. Following treatment cells were gently washed in PBS, fixed for 20 min with 4% paraformaldehyde in PBS and permeabilised in 0.5% Triton X-100. Following washes in PBS containing 0.1% Tween (PBST), cells were blocked in 5% bovine serum albumin diluted in PBST. Cells were then incubated with mouse monoclonal anti-α-tubulin−FITC antibody (clone DM1A) (Sigma-Aldrich, 2033 Westport Center Dr, St. Louis, MO, USA) (1:100) for 2 h at room temperature. Following washes in PBST, cells were incubated with Alexa Fluor 488 dye (1:450) for 1 h at room temperature. Following washes in PBST, the cells were mounted in Ultra Cruz Mounting Media (Santa Cruz Biotechnology Inc., 10410 Finnell Street, Dallas, TX, USA) containing 4,6-diamino-2-phenolindol dihydrochloride (DAPI). Images were captured by Leica SP8 confocal microscopy with Leica application suite X software (Leica Microsystems CMS GmbH Am Friedensplatz 3 D-68165 Mannheim, Germany). All images in each experiment were collected on the same day using identical parameters. Experiments were performed on three independent occasions.

T1 sequence (Q6B856 whole entry): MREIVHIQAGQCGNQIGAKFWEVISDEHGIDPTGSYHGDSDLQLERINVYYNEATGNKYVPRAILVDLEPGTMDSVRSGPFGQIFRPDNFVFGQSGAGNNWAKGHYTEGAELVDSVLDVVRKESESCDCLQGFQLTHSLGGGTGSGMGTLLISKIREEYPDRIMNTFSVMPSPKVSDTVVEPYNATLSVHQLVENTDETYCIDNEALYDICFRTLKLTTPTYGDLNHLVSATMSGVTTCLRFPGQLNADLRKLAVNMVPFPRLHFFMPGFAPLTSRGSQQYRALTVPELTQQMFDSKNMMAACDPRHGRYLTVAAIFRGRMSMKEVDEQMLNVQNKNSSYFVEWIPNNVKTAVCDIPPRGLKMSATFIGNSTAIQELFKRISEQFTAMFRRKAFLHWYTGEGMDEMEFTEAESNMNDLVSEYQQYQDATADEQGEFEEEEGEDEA
T1 sequence (P81947 whole entry): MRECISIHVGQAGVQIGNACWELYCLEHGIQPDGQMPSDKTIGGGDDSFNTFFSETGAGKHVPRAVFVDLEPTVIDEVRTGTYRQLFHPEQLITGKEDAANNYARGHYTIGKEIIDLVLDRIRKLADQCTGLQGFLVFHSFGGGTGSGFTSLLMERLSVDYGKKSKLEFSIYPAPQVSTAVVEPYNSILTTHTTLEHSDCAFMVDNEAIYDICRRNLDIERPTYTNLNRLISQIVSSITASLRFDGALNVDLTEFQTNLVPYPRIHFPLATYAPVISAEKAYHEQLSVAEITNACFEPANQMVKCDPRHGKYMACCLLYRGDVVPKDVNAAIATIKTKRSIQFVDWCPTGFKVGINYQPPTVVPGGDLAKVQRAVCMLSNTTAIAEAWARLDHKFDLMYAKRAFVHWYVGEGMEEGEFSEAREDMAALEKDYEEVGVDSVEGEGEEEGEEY

Row | Compound | IC50 [1] [nM] | IC50 [2] [nM] | cytotoxicity at 10 µM [3] [%] | other results
1 | C=CC1C(=O)N(c2cc(OC)c(OC)c(OC)c2)C1c1ccc(Cl)cc1 (centres unmarked) [Compound 7b, 4-(4-Chlorophenyl)-1-(3,4,5-trimethoxyphenyl)-3-vinylazetidin-2-one] | 690 ± 110 | 191 ± 16 | – | melting point: 104 °C
2 | C=CC1C(=O)N(c2cc(OC)c(OC)c(OC)c2)C1c1ccc([N+](=O)[O-])cc1 (centres unmarked) [Compound 7d, 4-(4-Nitrophenyl)-1-(3,4,5-trimethoxyphenyl)-3-vinylazetidin-2-one] | 3830 ± 530 | – | 7.2 | –
3 | C=CC1C(=O)N(c2cc(OC)c(OC)c(OC)c2)C1c1ccc(OCC)cc1 (centres unmarked) [Compound 7i, 4-(4-Ethoxyphenyl)-1-(3,4,5-trimethoxyphenyl)-3-vinylazetidin-2-one] | 37 ± 3.3 | 61 ± 7 | 8.5 | vmax of tubulin polymerization [4]: 3.84 mOD/min; fold reduction in vmax of tubulin polymerization ([4]; with reference to ethanol control): 2.19 fold
4 | C=CC1C(=O)N(c2cc(OC)c(OC)c(OC)c2)C1c1ccc2ccccc2c1 (centres unmarked) [Compound 7n, 4-Naphthalen-2-yl-1-(3,4,5-trimethoxyphenyl)-3-vinylazetidin-2-one] | 68 ± 10 | 77 ± 9 | – | melting point: 145 to 146 °C
5 | C=CC1C(=O)N(c2cc(OC)c(OC)c(OC)c2)C1c1ccc(C#N)cc1 (centres unmarked) [Compound 7q, 4-[4-Oxo-1-(3,4,5-trimethoxyphenyl)-3-vinyl-azetidin-2-yl]benzonitrile] | 6250 ± 5050 | – | 4.5 | –
6 | C=CC1C(=O)N(c2cc(OC)c(OC)c(OC)c2)C1c1ccc(SC)cc1 (centres unmarked) [Compound 7r, 4-(4-Methylsulfanylphenyl)-1-(3,4,5-trimethoxyphenyl)-3-vinylazetidin-2-one] | 51 ± 1 | – | 4.5 | –
7 | C=CC1C(=O)N(c2cc(OC)cc(OC)c2)C1c1ccc(OC)cc1 (centres unmarked) [Compound 7u, 1-(3,5-Dimethoxyphenyl)-4-(4-methoxyphenyl)-3-vinylazetidin-2-one] | 170 ± 70 | – | 3.5 | –
8 | COc1ccc(C2C(C(C)(C)O)C(=O)N2c2cc(OC)c(OC)c(OC)c2)cc1O (centres unmarked) [Compound 10d, 4-(3-Hydroxy-4-methoxyphenyl)-3-(1-hydroxy-1-methylethyl)-1-(3,4,5-trimethoxy-phenyl)azetidin-2-one] | 544 ± 310 | – | 9.8 | –
9 | COc1ccc(C2C(C(O)C=Cc3ccccc3)C(=O)N2c2cc(OC)c(OC)c(OC)c2)cc1O (centres unmarked) [Compound 10f, 4-(3-Hydroxy-4-methoxy-phenyl)-3-(1-hydroxy-3-phenyl-allyl)-1-(3,4,5-trimethoxy-phenyl)-azetidin-2-one] | 46 ± 41 | – | 7.6 | –
10 | CC=C1C(=O)N(c2cc(OC)c(OC)c(OC)c2)C1c1ccc(OC)c(O)c1 (centres unmarked) [Compound 12, 3-Ethylidene-4-(3-hydroxy-4-methoxy-phenyl)-1-(3,4,5-trimethoxy-phenyl)-azetidin-2-one] | 502 ± 212 | – | 8.4 | –
11 | COc1ccc(C2CC(=O)N2c2cc(OC)c(OC)c(OC)c2)cc1OP(=O)(O)O (centres unmarked) [Compound 17a, 2-Methoxy-5-(1-(3,4,5-trimethoxyphenyl)-4-oxoazetidin-2-yl)phenyl dihydrogen phosphate] | 22 ± 1.5 | 30 ± 4 | – | TGI (mean) [5]: 39800 nM; GI50 ([5]; read-out: GI50 (mean)): 141 nM; CC50 ([5]; read-out: LC50 (mean)): 87100 nM
12 | CC(=O)O[C@H]1C(=O)[C@@]2(C)[C@H]([C@H](OC(=O)c3ccccc3)[C@]3(O)C[C@H](OC(=O)[C@H](O)[C@@H](NC(=O)c4ccccc4)c4ccccc4)C(C)=C1C3(C)C)[C@]1(OC(C)=O)CO[C@@H]1C[C@@H]2O [paclitaxel, reference compound] | – | – | – | vmax of tubulin polymerization [4]: 89.4 mOD/min; effect on microtubule network [6]: Formation of microtubule bundles and pseudo asters
